Experimental data as given in US20030086868A1, “Actinium-225 complexes and conjugates for radioimmunotherapy” (priority 2002, published 2003).

What was measured:
[1] = In vivo biodistribution in nu/nu mice; settings: for 225Ac Biodistribution, Blood / 225Ac Biodistribution, Bone / 225Ac Biodistribution, Kidneys / 225Ac Biodistribution, Liver: average; for pattern of distribution: intraperitoneal, approx. 2 μCi, nu/nu mice, period of 5 days
Procedure: Counting was carried out half an hour after sample preparation.

[2] = molecular target: T1, antigen excess (HuM195 is anti-CD33) (Homo sapiens, UniProt P20138); assay: Cell-based immunoreactivity study (binding of labeled antibody to antigen excess)
T1 construct: host or cells: unnamed antigen-bearing cells

[3] = test system: antigen positive cell line; assay: In-vitro cell kill (3H-thymidine incorporation), antigen positive cell line; type: cell-based
[4] = test system: antigen negative cell line; assay: In-vitro cell kill (3H-thymidine incorporation), antigen negative cell line; type: cell-based
target cells = assay: Internalization of isotope into target cells; type: cell-based; settings: in 5 hours
[5] = in vivo; cited from earlier work

T1 sequence (P20138 18-364): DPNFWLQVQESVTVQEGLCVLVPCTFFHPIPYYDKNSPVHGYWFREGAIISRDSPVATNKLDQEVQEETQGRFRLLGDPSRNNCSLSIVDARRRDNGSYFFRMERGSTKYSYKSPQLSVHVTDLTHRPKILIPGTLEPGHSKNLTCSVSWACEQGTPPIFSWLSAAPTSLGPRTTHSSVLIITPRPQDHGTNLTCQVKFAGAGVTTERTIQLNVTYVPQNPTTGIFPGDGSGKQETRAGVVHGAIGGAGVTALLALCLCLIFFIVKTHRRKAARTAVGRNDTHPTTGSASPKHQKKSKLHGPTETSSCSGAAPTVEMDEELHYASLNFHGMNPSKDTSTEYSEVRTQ

| Compound | 225Ac Biodistribution, Blood ([1]; 1 d) | 225Ac Biodistribution, Blood ([1]; 2 d) | 225Ac Biodistribution, Blood ([1]; 5 d) | 225Ac Biodistribution, Bone ([1]; 1 d) | 225Ac Biodistribution, Bone ([1]; 2 d) | 225Ac Biodistribution, Bone ([1]; 5 d) | 225Ac Biodistribution, Kidneys ([1]; 1 d) | 225Ac Biodistribution, Kidneys ([1]; 2 d) | 225Ac Biodistribution, Kidneys ([1]; 5 d) | 225Ac Biodistribution, Liver ([1]; 1 d) | 225Ac Biodistribution, Liver ([1]; 2 d) | 225Ac Biodistribution, Liver ([1]; 5 d) | pattern of distribution [1] | immunoreactive fraction [2] | LD50 in a 2-day assay ([3]; 2-day assay, positive cell line) | LD50 in a 5-day assay ([3]; 5-day assay, specific activity of 0.035 Ci/g, 3H-thymidine incorporation) | LD50 in a 2-day assay [4] | isotope internalized in the target cells (target cells) | excretion [5] | liver uptake [5] |
| --- | --- | --- | --- | --- | --- | --- | --- | --- | --- | --- | --- | --- | --- | --- | --- | --- | --- | --- | --- | --- |
| CC(=O)[O-].CC(=O)[O-].CC(=O)[O-].[225Ac+3] [^225Ac Acetate, reference compound] | 0.1 % dose/g | 0.2 % dose/g | 0.0 % dose/g | 13.3 % dose/g | 12.0 % dose/g | 17.1 % dose/g | 3.8 % dose/g | 3.2 % dose/g | 2.8 % dose/g | 46.6 % dose/g | 43.1 % dose/g | 68.5 % dose/g | held up in the liver and bone but cleared from blood |  |  |  |  |  |  |  |
| ^225Ac-HuM195-MeO-DOTA | 10.1 % dose/g | 10.2 % dose/g | 4.5 % dose/g | 3.8 % dose/g | 4.1 % dose/g | 5.3 % dose/g | 4.6 % dose/g | 5.2 % dose/g | 4.6 % dose/g | 8.8 % dose/g | 10.0 % dose/g | 20.7 % dose/g | longer blood circulation time and less bone uptake | ~70% | about 1.4 nCi/ml | ~0.3 nCi/ml | about 28 nCi/ml | more than 50% |  |  |
| O=P(O)(O)CN(CCN(CP(=O)(O)O)CP(=O)(O)O)CP(=O)(O)O [^225Ac-EDTMP, ethylenediaminetetra-methylenephosphonic acid, metal not drawn] |  |  |  |  |  |  |  |  |  |  |  |  |  |  |  |  |  |  | poor | still substantial |
